Laboratory results: patent US12419892B2, “Pharmaceutical compositions comprising nilotinib” (XSPRAY PHARMA AB, priority 2023, dated 2025)

Tests used:
[1] = cited from earlier work
[2] = Genotoxicity classification of Nilotinib impurity A; settings: not disclosed
Text: Regulatory agencies, such as the FDA and the European Medicines Agency (EMA), have specific guidelines and regulations for assessing and managing the risks associated with genotoxic compounds, particularly in the context of pharmaceuticals and chemical safety.

[3] = literature (Li, Singamsetti, Puppala); cited from earlier work

Row | Compound | pKa [1] | genotoxicity, internal evaluations [2] | genotoxicity classification [3]
1 | O=C1O[C@H]([C@@H](O)CO)C(O)=C1O [Ascorbic acid, ascorbic acid] | about 4.2 | – | –
2 | Cc1cn(-c2cc(N)cc(C(F)(F)F)c2)cn1 [Nilotinib impurity A, 3-(4-methylimidazol-1-yl)-5-(trifluoromethyl) aniline] | – | may not be genotoxic | potentially genotoxic or mutagenic
